# Earlier results as cited in patent US7632656B2, “High performance liquid chromatography with an aqueous mobile phase for analysis of drug and its metabolite” (Cellseed Inc., priority 2003, dated 2009).
# Conditions: listed with the structures of the CYP probe drugs; method not stated
row,Compound,logP
1,CCOc1ccc(NC(C)=O)cc1 [Phenacetin],0.985
2,CC12CCC(=O)C=C1CCC1C2CCC2(C)C(O)CCC12 (centres unmarked) [Testosterone],2.899
